Test results reported in ChEMBL document CHEMBL5291721, “A preclinical secondary pharmacology resource illuminates target-adverse drug reaction associations of marketed drugs” (Nat Commun, 2023).

Assays:
Histamine H2 receptor = Histamine H2 receptor (Homo sapiens, UniProt P25021)
D(1A) dopamine receptor = D(1A) dopamine receptor (Homo sapiens, UniProt P21728)
[1] = target: T1, Amine oxidase [flavin-containing] A (Homo sapiens, UniProt P21397); type: functional
T1 sequence (P21397 whole entry): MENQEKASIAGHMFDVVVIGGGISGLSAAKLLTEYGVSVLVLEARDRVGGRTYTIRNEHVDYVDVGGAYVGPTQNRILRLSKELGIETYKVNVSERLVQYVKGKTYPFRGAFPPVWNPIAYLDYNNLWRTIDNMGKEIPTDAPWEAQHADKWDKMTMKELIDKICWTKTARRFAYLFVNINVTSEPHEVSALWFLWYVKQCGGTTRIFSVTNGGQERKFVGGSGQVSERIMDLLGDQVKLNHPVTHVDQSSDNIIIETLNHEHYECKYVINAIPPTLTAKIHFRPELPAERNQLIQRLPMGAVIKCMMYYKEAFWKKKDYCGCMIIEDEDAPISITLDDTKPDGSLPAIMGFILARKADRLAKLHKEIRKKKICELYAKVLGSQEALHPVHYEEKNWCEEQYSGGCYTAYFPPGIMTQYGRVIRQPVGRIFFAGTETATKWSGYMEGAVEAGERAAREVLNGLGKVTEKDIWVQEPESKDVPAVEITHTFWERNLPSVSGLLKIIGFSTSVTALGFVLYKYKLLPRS

D(3) dopamine receptor = D(3) dopamine receptor (Homo sapiens, UniProt P35462)
[2] = target: Vascular endothelial growth factor receptor 2 (Homo sapiens, UniProt P35968); type: functional
[3] = target: cGMP-inhibited 3',5'-cyclic phosphodiesterase 3A (Homo sapiens, UniProt Q14432); type: functional
[4] = target: Sodium-dependent noradrenaline transporter (Homo sapiens, UniProt P23975)
[5] = target: Sodium-dependent dopamine transporter (Homo sapiens, UniProt Q01959)
Adenosine receptor A3 = target: T2, Adenosine receptor A3 (Homo sapiens, UniProt P0DMS8)
T2 sequence (P0DMS8 whole entry): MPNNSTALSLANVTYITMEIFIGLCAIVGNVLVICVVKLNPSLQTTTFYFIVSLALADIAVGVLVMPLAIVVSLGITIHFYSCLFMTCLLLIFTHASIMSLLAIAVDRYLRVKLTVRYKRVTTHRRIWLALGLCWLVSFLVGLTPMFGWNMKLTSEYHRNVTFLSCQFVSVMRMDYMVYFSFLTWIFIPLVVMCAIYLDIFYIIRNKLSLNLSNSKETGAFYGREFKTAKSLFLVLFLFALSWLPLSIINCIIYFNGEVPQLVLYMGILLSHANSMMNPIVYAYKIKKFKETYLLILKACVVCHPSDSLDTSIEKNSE

[6] = target: 5-hydroxytryptamine receptor 2B (Homo sapiens, UniProt P41595); type: functional, cell-based
[7] = target: T3, Muscarinic acetylcholine receptor M2 (Homo sapiens, UniProt P08172)
T3 sequence (P08172 whole entry): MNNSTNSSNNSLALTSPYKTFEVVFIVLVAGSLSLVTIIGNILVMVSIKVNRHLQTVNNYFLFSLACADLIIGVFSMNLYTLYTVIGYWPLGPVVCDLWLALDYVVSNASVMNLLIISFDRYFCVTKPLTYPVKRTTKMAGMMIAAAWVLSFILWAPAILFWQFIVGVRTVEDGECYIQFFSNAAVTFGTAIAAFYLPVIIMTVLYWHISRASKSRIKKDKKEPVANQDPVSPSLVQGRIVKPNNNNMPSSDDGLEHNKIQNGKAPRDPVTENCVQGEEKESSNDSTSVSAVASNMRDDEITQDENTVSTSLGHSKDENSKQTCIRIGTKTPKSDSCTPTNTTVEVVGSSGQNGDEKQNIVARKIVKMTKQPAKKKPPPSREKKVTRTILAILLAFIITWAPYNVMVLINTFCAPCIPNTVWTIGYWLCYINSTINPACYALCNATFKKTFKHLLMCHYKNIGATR

Androgen receptor = target: T4, Androgen receptor (Rattus norvegicus, UniProt P15207)
T4 sequence (P15207 whole entry): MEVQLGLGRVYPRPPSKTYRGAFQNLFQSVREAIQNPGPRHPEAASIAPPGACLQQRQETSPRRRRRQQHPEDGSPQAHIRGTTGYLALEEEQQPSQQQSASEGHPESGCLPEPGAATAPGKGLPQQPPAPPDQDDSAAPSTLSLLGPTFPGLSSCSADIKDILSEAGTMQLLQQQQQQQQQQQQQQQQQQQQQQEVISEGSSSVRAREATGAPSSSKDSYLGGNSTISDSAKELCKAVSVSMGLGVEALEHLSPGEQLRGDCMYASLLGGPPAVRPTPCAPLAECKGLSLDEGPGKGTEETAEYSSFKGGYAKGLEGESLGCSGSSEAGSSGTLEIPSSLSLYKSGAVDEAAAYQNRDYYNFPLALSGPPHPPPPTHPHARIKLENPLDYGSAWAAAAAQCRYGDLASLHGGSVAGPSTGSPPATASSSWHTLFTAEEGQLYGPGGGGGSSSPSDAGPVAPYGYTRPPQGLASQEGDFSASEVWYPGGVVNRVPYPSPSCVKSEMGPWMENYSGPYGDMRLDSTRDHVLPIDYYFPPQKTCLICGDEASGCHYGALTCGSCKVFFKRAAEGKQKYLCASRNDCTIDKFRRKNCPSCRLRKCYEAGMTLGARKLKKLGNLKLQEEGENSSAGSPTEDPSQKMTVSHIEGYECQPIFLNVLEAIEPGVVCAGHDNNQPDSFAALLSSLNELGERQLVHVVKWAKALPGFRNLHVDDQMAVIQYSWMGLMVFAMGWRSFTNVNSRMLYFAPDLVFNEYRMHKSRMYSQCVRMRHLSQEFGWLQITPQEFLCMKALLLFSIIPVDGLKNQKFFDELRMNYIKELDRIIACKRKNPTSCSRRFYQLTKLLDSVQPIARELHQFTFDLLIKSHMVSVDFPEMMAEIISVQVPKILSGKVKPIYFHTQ

Glucagon receptor = Glucagon receptor (Homo sapiens, UniProt P47871)
[8] = target: Voltage-dependent N-type calcium channel subunit alpha-1B (Rattus norvegicus, UniProt Q02294); type: functional
Histamine H1 receptor = Histamine H1 receptor (Homo sapiens, UniProt P35367); type: functional, cell-based
Also: assay procedure not described here.

Histamine H2 receptor, sequence (P25021 whole entry): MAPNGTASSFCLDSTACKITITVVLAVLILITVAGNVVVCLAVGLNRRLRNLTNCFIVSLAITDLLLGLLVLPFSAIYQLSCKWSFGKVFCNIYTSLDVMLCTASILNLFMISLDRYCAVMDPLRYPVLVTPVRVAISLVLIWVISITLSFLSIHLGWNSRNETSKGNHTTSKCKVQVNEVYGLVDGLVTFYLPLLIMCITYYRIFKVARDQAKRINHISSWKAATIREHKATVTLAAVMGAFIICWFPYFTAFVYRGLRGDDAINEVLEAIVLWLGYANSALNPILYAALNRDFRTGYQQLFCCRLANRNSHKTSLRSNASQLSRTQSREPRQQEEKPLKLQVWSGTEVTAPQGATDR
Sodium-dependent noradrenaline transporter, sequence (P23975 whole entry): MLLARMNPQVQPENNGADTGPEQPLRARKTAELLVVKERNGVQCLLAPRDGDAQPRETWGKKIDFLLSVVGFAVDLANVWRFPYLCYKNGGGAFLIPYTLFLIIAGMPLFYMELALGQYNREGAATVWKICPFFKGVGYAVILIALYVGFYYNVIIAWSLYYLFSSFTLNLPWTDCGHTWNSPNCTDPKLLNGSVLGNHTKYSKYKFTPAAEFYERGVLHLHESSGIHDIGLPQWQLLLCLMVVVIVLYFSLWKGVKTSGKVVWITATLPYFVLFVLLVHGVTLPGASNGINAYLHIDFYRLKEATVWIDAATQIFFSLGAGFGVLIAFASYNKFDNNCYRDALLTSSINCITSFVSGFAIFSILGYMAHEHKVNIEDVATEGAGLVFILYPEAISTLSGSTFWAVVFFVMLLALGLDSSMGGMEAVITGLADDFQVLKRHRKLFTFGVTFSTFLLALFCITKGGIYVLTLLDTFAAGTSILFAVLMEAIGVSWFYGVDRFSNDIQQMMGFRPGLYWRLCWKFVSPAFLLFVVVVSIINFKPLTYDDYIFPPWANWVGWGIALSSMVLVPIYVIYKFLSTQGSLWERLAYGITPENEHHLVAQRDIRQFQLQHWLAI
Sodium-dependent dopamine transporter, sequence (Q01959 whole entry): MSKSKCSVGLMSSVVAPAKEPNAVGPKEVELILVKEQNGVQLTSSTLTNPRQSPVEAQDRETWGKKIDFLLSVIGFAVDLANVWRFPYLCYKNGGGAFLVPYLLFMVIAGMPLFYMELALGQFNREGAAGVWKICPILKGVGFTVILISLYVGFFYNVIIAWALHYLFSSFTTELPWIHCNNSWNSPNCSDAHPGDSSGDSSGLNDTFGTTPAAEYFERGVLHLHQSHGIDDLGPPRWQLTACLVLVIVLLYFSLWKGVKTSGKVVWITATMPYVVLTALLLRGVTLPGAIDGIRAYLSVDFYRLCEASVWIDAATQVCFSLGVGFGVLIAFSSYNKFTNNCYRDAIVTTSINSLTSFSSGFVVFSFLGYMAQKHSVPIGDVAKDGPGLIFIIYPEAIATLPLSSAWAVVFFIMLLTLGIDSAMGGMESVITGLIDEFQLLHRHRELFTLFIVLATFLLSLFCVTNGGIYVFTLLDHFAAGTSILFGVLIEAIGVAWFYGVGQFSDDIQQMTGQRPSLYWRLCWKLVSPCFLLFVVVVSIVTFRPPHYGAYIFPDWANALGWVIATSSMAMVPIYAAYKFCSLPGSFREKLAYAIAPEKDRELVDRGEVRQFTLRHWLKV
Voltage-dependent N-type calcium channel subunit alpha-1B, sequence (Q02294 whole entry): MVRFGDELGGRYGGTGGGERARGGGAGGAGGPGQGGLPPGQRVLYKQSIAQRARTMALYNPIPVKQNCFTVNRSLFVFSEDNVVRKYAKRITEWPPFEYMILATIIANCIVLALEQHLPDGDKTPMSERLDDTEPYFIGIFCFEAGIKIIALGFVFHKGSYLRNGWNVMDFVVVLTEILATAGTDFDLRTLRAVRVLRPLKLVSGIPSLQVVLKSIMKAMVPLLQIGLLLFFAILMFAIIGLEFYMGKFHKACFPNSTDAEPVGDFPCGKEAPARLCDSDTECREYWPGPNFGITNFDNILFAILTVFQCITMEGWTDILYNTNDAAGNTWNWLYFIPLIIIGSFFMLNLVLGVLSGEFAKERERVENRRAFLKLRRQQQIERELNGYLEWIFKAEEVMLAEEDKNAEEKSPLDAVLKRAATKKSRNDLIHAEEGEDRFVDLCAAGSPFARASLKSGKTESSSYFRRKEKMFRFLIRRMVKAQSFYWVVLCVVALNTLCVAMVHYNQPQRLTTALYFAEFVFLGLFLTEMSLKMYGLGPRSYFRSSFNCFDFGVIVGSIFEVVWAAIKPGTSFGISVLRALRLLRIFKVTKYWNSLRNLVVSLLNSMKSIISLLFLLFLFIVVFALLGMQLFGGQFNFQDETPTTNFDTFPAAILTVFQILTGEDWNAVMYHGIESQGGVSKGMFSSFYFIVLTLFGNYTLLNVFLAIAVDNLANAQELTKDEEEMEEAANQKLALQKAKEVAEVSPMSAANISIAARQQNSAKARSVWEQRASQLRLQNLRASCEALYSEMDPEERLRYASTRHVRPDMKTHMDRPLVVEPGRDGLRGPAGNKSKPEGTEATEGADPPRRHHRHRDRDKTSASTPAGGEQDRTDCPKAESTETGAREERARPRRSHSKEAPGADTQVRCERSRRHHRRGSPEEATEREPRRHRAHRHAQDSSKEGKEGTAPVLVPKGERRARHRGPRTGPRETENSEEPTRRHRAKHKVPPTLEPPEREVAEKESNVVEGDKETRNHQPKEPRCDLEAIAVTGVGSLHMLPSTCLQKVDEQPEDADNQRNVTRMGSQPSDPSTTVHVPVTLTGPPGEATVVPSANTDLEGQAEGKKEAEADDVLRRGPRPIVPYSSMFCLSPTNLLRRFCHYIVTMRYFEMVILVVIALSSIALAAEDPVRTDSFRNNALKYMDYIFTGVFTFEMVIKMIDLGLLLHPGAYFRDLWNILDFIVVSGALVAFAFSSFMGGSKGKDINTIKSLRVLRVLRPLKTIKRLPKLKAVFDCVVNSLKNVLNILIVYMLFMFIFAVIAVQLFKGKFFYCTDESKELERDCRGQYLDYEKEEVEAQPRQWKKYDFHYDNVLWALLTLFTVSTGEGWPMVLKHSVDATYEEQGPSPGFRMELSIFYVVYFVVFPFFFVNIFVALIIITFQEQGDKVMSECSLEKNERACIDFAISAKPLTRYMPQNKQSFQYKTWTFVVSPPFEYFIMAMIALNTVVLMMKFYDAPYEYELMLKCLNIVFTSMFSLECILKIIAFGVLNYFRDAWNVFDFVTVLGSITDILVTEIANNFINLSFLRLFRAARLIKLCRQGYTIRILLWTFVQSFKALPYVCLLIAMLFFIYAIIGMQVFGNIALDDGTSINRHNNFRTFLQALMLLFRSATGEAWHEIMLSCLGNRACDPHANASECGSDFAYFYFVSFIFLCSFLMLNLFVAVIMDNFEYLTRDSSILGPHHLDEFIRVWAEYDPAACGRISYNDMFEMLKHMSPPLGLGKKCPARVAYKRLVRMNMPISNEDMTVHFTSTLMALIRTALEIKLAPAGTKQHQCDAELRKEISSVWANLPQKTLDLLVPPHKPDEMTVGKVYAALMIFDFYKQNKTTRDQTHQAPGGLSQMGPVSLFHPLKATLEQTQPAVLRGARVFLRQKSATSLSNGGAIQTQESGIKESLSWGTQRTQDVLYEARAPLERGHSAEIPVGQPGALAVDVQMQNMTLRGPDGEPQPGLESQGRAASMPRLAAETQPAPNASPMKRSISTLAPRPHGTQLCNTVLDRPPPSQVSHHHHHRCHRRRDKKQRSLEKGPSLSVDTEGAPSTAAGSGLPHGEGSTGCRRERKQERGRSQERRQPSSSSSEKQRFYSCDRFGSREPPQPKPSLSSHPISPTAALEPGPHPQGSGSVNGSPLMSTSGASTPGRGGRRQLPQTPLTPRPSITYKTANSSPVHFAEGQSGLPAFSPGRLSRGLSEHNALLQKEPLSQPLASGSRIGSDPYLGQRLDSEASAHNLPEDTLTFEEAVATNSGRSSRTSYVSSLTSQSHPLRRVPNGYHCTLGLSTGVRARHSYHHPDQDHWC
Histamine H1 receptor, sequence (P35367 whole entry): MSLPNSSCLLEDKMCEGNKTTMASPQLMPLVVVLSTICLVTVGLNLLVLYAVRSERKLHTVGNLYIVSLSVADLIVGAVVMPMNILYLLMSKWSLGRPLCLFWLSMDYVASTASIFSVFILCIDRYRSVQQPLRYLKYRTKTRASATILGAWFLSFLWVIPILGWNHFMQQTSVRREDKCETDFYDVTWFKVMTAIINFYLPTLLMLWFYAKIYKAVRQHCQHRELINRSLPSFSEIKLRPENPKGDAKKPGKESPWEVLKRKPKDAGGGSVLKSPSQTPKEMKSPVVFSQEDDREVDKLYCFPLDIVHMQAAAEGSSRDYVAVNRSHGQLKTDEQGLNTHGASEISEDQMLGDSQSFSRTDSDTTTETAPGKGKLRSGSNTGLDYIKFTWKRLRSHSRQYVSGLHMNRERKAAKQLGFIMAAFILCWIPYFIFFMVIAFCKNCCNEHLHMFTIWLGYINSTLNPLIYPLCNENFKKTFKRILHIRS
5-hydroxytryptamine receptor 2B, sequence (P41595 whole entry): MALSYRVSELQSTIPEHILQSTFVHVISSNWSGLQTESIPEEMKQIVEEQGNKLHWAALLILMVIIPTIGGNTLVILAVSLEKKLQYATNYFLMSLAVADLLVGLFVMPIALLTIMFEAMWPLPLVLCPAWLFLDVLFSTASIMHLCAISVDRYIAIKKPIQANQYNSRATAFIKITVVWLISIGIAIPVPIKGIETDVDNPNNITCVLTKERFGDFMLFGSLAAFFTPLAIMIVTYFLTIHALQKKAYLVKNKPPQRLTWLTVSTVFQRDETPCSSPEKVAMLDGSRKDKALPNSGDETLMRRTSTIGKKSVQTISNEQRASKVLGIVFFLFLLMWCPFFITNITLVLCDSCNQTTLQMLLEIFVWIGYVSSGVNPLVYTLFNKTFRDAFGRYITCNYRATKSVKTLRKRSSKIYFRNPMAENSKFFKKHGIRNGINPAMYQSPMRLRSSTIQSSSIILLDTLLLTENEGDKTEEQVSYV

Cn1cnc2c(F)c(Nc3ccc(Br)cc3Cl)c(C(=O)NOCCO)cc21 [SELUMETINIB]
AC50 (Histamine H2 receptor): > 10 µM

O=C(O)CCCCC1CCSS1 (stereo not drawn) [LIPOIC ACID, ALPHA]
AC50 (D(1A) dopamine receptor): > 30 µM | AC50 [1]: > 30 µM | AC50 (D(3) dopamine receptor): > 30 µM | AC50 [2]: > 30 µM | AC50 [3]: > 30 µM | AC50 [4]: > 30 µM | AC50 [5]: > 30 µM | AC50 (Adenosine receptor A3): > 30 µM | AC50 [6]: > 30 µM | AC50 [7]: > 30 µM

Cn1c(=O)cc(N2CCC[C@@H](N)C2)n(Cc2ccccc2C#N)c1=O [ALOGLIPTIN]
AC50 (Androgen receptor): > 30 µM | AC50 (Glucagon receptor): > 30 µM | AC50 (Histamine H2 receptor): > 10 µM | AC50 [8]: > 10 µM

CC(=O)OCC(=O)[C@@]1(O)[C@H](C)C[C@H]2[C@@H]3CCC4=CC(=O)C=C[C@]4(C)[C@@]3(F)[C@@H](O)C[C@@]21C [DEXAMETHASONE ACETATE]
AC50 (Glucagon receptor): > 30 µM | AC50 [8]: > 10 µM

O=C1CN=C(c2ccccn2)c2cc(Br)ccc2N1 [BROMAZEPAM]
AC50 (Androgen receptor): > 10 µM

CCN1CCCC1CNC(=O)c1cc(S(=O)(=O)CC)c(N)cc1OC (configuration not stated) [AMISULPRIDE]
AC50 (Histamine H1 receptor): > 30 µM

Nc1cc(-c2ccncc2)c[nH]c1=O [INAMRINONE]
AC50 (Androgen receptor): > 30 µM

COc1cc2c(cc1OC)C(CCc1ccc(Cl)cc1)N(C)CC2 (configuration not stated) [METHOPHOLINE]
AC50 (Androgen receptor): > 30 µM

Nc1c2ccccc2nc2ccccc12 [AMINACRINE]
AC50 (D(1A) dopamine receptor): 11.7 µM | AC50 [1]: > 30 µM | AC50 (D(3) dopamine receptor): > 30 µM | AC50 [2]: > 30 µM | AC50 [3]: > 30 µM | AC50 [4]: 2.95 µM | AC50 [5]: > 30 µM | AC50 (Adenosine receptor A3): 9.62 µM | AC50 [6]: > 30 µM | AC50 [7]: 4.27 µM

OCc1cc(C(O)CNCCCCCCOCCCCc2ccccc2)ccc1O (configuration not stated) [SALMETEROL]
AC50 (Histamine H1 receptor): > 30 µM
